Patent publication US8802597B2, “Herbicidal pyrimidines” (E I du Pont de Nemours and Company, priority 2003, dated 2014)
Read-outs that look alike come from different tables or passages of the source.

Tests used:
Type in all cases: in vivo
[1] = test system: barnyardgrass (Echinochloa crus-galli); test: Test B flooded paddy test; conditions: Echinochloa crus-galli, Flood, 1000 g ai/ha; scale 0 (no effect) to 100 (complete control); read-out: Plant response rating, Barnyardgrass
Summary of the method: (§1)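 Rice, umbrella sedge, duck salad and barnyardgrass grown to 2-leaf stage under flooded paddy conditions and treated with formulated test chemicals. Kept in greenhouse 13–15 days, then visually rated against untreated controls on a 0–100 scale (0 no effect, 100 complete control).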

[2] = test system: umbrella sedge (Cyperus difformis); test: Test B flooded paddy test; conditions: Cyperus difformis, Flood, 1000 g ai/ha; scale 0 to 100; read-out: Plant response rating, Sedge, Umbrella
Summary of the method: as §1

[3] = test system: duck salad (Heteranthera limosa); test: Test B flooded paddy test; conditions: Heteranthera limosa, Flood, 1000 g ai/ha; scale 0 to 100; read-out: Plant response rating, Ducksalad
Summary of the method: as §1

rice (Oryza sativa) = test: Test B flooded paddy test; conditions: Oryza sativa, Flood, 1000 g ai/ha; scale 0 to 100; read-out: Plant response rating, Rice
Summary of the method: as §1

[4] = test system: blackgrass (Alopecurus myosuroides); test: Test B postemergence; conditions: Alopecurus myosuroides, post-emergence
Summary of the method: (§2)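 Formulation: non-phytotoxic solvent blend with surfactant. Timing: preemergence on seeds, postemergence at 1- to 4-leaf (2–18 cm). Assessment: visual, 0–100 against controls, after 13–15 days' greenhouse growth.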

wild oat (Avena fatua) = test: Test B postemergence; conditions: Avena fatua, post-emergence
Summary of the method: as §2

[5] = test system: barnyardgrass (Echinochloa crus-galli); test: Test B pre/postemergence; conditions: Echinochloa crus-galli; for pest or weed control at 125 g/ha: 125 g ai/ha; for pest or weed control at 500 g/ha: 500 g ai/ha
Summary of the method: as §2

[6] = test system: cocklebur (Xanthium strumarium); test: Test B pre/postemergence; conditions: Xanthium strumarium; for pest or weed control at 125 g/ha: 125 g ai/ha; for pest or weed control at 500 g/ha: 500 g ai/ha
Summary of the method: as §2

[7] = test system: morningglory (Ipomoea coccinea); test: Test B pre/postemergence; conditions: Ipomoea; for pest or weed control at 125 g/ha: 125 g ai/ha; for pest or weed control at 500 g/ha: 500 g ai/ha
Summary of the method: as §2

[8] = test system: giant foxtail (Setaria faberii); test: Test B pre/postemergence; conditions: Setaria faberi; for pest or weed control at 125 g/ha: 125 g ai/ha; for pest or weed control at 500 g/ha: 500 g ai/ha
Summary of the method: as §2

[9] = test system: lambsquarters (Chenopodium album); test: Test B pre/postemergence; conditions: Chenopodium album; for pest or weed control at 125 g/ha: 125 g ai/ha; for pest or weed control at 500 g/ha: 500 g ai/ha
Summary of the method: as §2

[10] = test system: velvetleaf (Abutilon theophrasti); test: Test B pre/postemergence; conditions: Abutilon theophrasti; for pest or weed control at 125 g/ha: 125 g ai/ha; for pest or weed control at 500 g/ha: 500 g ai/ha
Summary of the method: as §2

corn (Zea mays) = test: Test B pre/postemergence; conditions: Zea mays
Summary of the method: as §2

[11] = test system: Surinam grass (Brachiaria decumbens); test: Test B pre/postemergence; conditions: Urochloa decumbens; for pest or weed control at 125 g/ha: 125 g ai/ha; for pest or weed control at 500 g/ha: 500 g ai/ha
Summary of the method: as §2

[12] = test system: crabgrass (Digitaria sanguinalis); test: Test B pre/postemergence; conditions: Digitaria sanguinalis; for pest or weed control at 125 g/ha: 125 g ai/ha; for pest or weed control at 500 g/ha: 500 g ai/ha
Summary of the method: as §2

[13] = test system: wheat (Triticum aestivum); test: Test B pre/postemergence; conditions: Triticum aestivum; for plant injury at 125 g/ha: 125 g ai/ha; for plant injury at 500 g/ha: 500 g ai/ha
Summary of the method: as §2

[14] = test system: pigweed (Amaranthus retroflexus); test: Test B pre/postemergence; conditions: Amaranthus retroflexus; for pest or weed control at 125 g/ha: 125 g ai/ha; for pest or weed control at 500 g/ha: 500 g ai/ha
Summary of the method: as §2

CCOC(=O)c1nc(C2CC2)nc(N)c1F [Compound 30] was tested, and the pest or weed control at 1000 g/ha [1] was 0%, the pest or weed control at 1000 g/ha [2] was 0% and the pest or weed control at 1000 g/ha [3] was 0%. The plant injury at 1000 g/ha (rice (Oryza sativa)) was 0%, the pest or weed control at 125 g/ha ([4]; 125 g ai/ha, scale 0 to 100 (0 no effect, 100 complete control), read-out: Blackgrass plant response rating) was 60% and the pest or weed control at 500 g/ha ([4]; 500 g ai/ha, scale 0 to 100, read-out: Plant response rating, Blackgrass) was 70%. For the same compound, the pest or weed control at 125 g/ha (wild oat (Avena fatua); 125 g ai/ha, scale 0 to 100 (0 no effect, 100 complete control), read-out: Oat, Wild plant response rating) was 60%, the pest or weed control at 500 g/ha (wild oat (Avena fatua); 500 g ai/ha, scale 0 to 100, read-out: Plant response rating, Oat, Wild) was 70% and the pest or weed control at 125 g/ha ([5]; post-emergence, Postemergence, scale 0 to 100 (0 no effect, 100 complete control), read-out: Barnyardgrass plant response rating) was 0%. The pest or weed control at 500 g/ha ([5]; post-emergence, Postemergence, scale 0 to 100, read-out: Plant response rating, Barnyardgrass) was 80%, the pest or weed control at 125 g/ha ([5]; pre-emergence, Preemergence, scale 0 to 100 (0 no effect, 100 complete control), read-out: Plant response rating, Barnyardgrass) was 10% and the pest or weed control at 500 g/ha ([5]; pre-emergence, Preemergence, scale 0 to 100 (0 no effect, 100 complete control), read-out: Barnyardgrass plant response rating) was 40%. The pest or weed control at 125 g/ha ([6]; post-emergence, Postemergence, scale 0 to 100 (0 no effect, 100 complete control), read-out: Cocklebur plant response rating) was 100%, the pest or weed control at 500 g/ha ([6]; post-emergence, Postemergence, scale 0 to 100, read-out: Plant response rating, Cocklebur) was 100% and the pest or weed control at 125 g/ha ([6]; pre-emergence, Preemergence, scale 0 to 100 (0 no effect, 100 complete control), read-out: Plant response rating, Cocklebur) was 60%. For the same compound, the pest or weed control at 500 g/ha ([6]; pre-emergence, Preemergence, scale 0 to 100 (0 no effect, 100 complete control), read-out: Cocklebur plant response rating) was 100%, the pest or weed control at 125 g/ha ([7]; post-emergence, Postemergence, scale 0 to 100 (0 no effect, 100 complete control), read-out: Morningglory plant response rating) was 90% and the pest or weed control at 500 g/ha ([7]; post-emergence, Postemergence, scale 0 to 100, read-out: Plant response rating, Morningglory) was 100%. The pest or weed control at 125 g/ha ([7]; pre-emergence, Preemergence, scale 0 to 100 (0 no effect, 100 complete control), read-out: Plant response rating, Morningglory) was 90%, the pest or weed control at 500 g/ha ([7]; pre-emergence, Preemergence, scale 0 to 100 (0 no effect, 100 complete control), read-out: Morningglory plant response rating) was 100% and the pest or weed control at 125 g/ha ([8]; post-emergence, Postemergence, scale 0 to 100 (0 no effect, 100 complete control), read-out: Foxtail, Giant plant response rating) was 0%. For the same compound, the pest or weed control at 500 g/ha ([8]; post-emergence, Postemergence, scale 0 to 100, read-out: Plant response rating, Foxtail, Giant) was 90%, the pest or weed control at 125 g/ha ([8]; pre-emergence, Preemergence, scale 0 to 100 (0 no effect, 100 complete control), read-out: Plant response rating, Foxtail, Giant) was 10% and the pest or weed control at 500 g/ha ([8]; pre-emergence, Preemergence, scale 0 to 100 (0 no effect, 100 complete control), read-out: Foxtail, Giant plant response rating) was 80%. The pest or weed control at 125 g/ha ([9]; post-emergence, Postemergence, scale 0 to 100 (0 no effect, 100 complete control), read-out: Lambsquarters plant response rating) was 90%, the pest or weed control at 500 g/ha ([9]; post-emergence, Postemergence, scale 0 to 100, read-out: Plant response rating, Lambsquarters) was 100% and the pest or weed control at 125 g/ha ([9]; pre-emergence, Preemergence, scale 0 to 100 (0 no effect, 100 complete control), read-out: Plant response rating, Lambsquarters) was 80%. The pest or weed control at 500 g/ha ([9]; pre-emergence, Preemergence, scale 0 to 100 (0 no effect, 100 complete control), read-out: Lambsquarters plant response rating) was 90%, the pest or weed control at 125 g/ha ([10]; post-emergence, Postemergence, scale 0 to 100 (0 no effect, 100 complete control), read-out: Velvetleaf plant response rating) was 50% and the pest or weed control at 500 g/ha ([10]; post-emergence, Postemergence, scale 0 to 100, read-out: Plant response rating, Velvetleaf) was 90%. The pest or weed control at 125 g/ha ([10]; pre-emergence, Preemergence, scale 0 to 100 (0 no effect, 100 complete control), read-out: Plant response rating, Velvetleaf) was 10%, the pest or weed control at 500 g/ha ([10]; pre-emergence, Preemergence, scale 0 to 100 (0 no effect, 100 complete control), read-out: Velvetleaf plant response rating) was 80% and the plant injury at 125 g/ha (corn (Zea mays); post-emergence, Postemergence, 125 g ai/ha, scale 0 to 100 (0 no effect, 100 complete control), read-out: Corn plant response rating) was 0%. For the same compound, the Corn plant response rating (crop injury, 0 = no effect, 100 = complete kill) at 500 g/ha (corn (Zea mays); post-emergence, Postemergence, 500 g ai/ha, scale 0 to 100) was 30%, the Corn plant response rating (crop injury, 0 = no effect, 100 = complete kill) at 125 g/ha (corn (Zea mays); pre-emergence, Preemergence, 125 g ai/ha, scale 0 to 100 (0 no effect, 100 complete control)) was 10% and the plant injury at 500 g/ha (corn (Zea mays); pre-emergence, Preemergence, 500 g ai/ha, scale 0 to 100 (0 no effect, 100 complete control), read-out: Corn plant response rating) was 80%. It also gave a pest or weed control at 125 g/ha ([11]; post-emergence, Postemergence, scale 0 to 100 (0 no effect, 100 complete control), read-out: Surinam Grass plant response rating) of 10%, a pest or weed control at 500 g/ha ([11]; post-emergence, Postemergence, scale 0 to 100, read-out: Plant response rating, Surinam Grass) of 80% and a pest or weed control at 125 g/ha ([11]; pre-emergence, Preemergence, scale 0 to 100 (0 no effect, 100 complete control), read-out: Plant response rating, Surinam Grass) of 0%. For the same compound, the pest or weed control at 500 g/ha ([11]; pre-emergence, Preemergence, scale 0 to 100 (0 no effect, 100 complete control), read-out: Surinam Grass plant response rating) was 80%, the pest or weed control at 125 g/ha ([12]; post-emergence, Postemergence, scale 0 to 100 (0 no effect, 100 complete control), read-out: Crabgrass plant response rating) was 30% and the pest or weed control at 500 g/ha ([12]; post-emergence, Postemergence, scale 0 to 100, read-out: Plant response rating, Crabgrass) was 90%. For the same compound, the pest or weed control at 125 g/ha ([12]; pre-emergence, Preemergence, scale 0 to 100 (0 no effect, 100 complete control), read-out: Plant response rating, Crabgrass) was 50%, the pest or weed control at 500 g/ha ([12]; pre-emergence, Preemergence, scale 0 to 100 (0 no effect, 100 complete control), read-out: Crabgrass plant response rating) was 90% and the plant injury at 125 g/ha ([13]; post-emergence, Postemergence, scale 0 to 100 (0 no effect, 100 complete control), read-out: Wheat plant response rating) was 50%. The plant injury at 500 g/ha ([13]; post-emergence, Postemergence, scale 0 to 100, read-out: Plant response rating, Wheat) was 60%, the plant injury at 125 g/ha ([13]; pre-emergence, Preemergence, scale 0 to 100 (0 no effect, 100 complete control), read-out: Plant response rating, Wheat) was 30% and the plant injury at 500 g/ha ([13]; pre-emergence, Preemergence, scale 0 to 100 (0 no effect, 100 complete control), read-out: Wheat plant response rating) was 60%. The pest or weed control at 125 g/ha ([14]; post-emergence, Postemergence, scale 0 to 100 (0 no effect, 100 complete control), read-out: Pigweed plant response rating) was 90%, the pest or weed control at 500 g/ha ([14]; post-emergence, Postemergence, scale 0 to 100, read-out: Plant response rating, Pigweed) was 100% and the pest or weed control at 125 g/ha ([14]; pre-emergence, Preemergence, scale 0 to 100 (0 no effect, 100 complete control), read-out: Plant response rating, Pigweed) was 50%. It also gave a pest or weed control at 500 g/ha ([14]; pre-emergence, Preemergence, scale 0 to 100 (0 no effect, 100 complete control), read-out: Pigweed plant response rating) of 90%.
